# Assay results: ChEMBL document CHEMBL1201862, “PubChem BioAssay data set” (2004)
#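 Cells were grown in 96-well plates and exposed to each compound for 48 hours at five concentrations; endpoints were interpolated linearly between bracketing concentrations, or set to the highest concentration if not reached. GI50 = concentration required for 50% inhibition of growth.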 Active and inactive are the calls of the source. Rule as the data show it: active = GI50 up to about 1.1 µM and inactive = higher.
# Tests used:
# Assay in all cases: NCI tumour cell line growth inhibition, 48 h
# COLO 205 = test system: COLO 205
# UACC-62 = test system: UACC-62
# CCRF-CEM = test system: CCRF-CEM
# M14 = test system: M14
# DMS-114 = test system: DMS-114
# SF-268 = test system: SF-268
# K562 = test system: K562
# SK-OV-3 = test system: SK-OV-3
# U-251 = test system: U-251
# HOP-62 = test system: HOP-62
# SNB-78 = test system: SNB-78
# OVCAR-4 = test system: OVCAR-4
# KM-20L2 = test system: KM-20L2
# RXF 393 = test system: RXF 393
# SF-295 = test system: SF-295
# SNB-75 = test system: SNB-75
# IGROV-1 = test system: IGROV-1
# KM12 = test system: KM12
# SK-MEL-28 = test system: SK-MEL-28
# Malme-3M = test system: Malme-3M
# UO-31 = test system: UO-31
# HOP-92 = test system: HOP-92
# HCT-116 = test system: HCT-116
# LXFL 529 = test system: LXFL 529
# UACC-257 = test system: UACC-257
# NCI-H522 = test system: NCI-H522
# SK-MEL-2 = test system: SK-MEL-2
# NCI-H460 = test system: NCI-H460
# HL-60 = test system: HL-60
# SNB-19 = test system: SNB-19
# SR = test system: SR
# OVCAR-3 = test system: OVCAR-3
# HT-29 = test system: HT-29
# ACHN = test system: ACHN
# RPMI-8226 = test system: RPMI-8226
# M19-MEL = test system: M19-MEL
# SF-539 = test system: SF-539
# NCI-H23 = test system: NCI-H23
# OVCAR-5 = test system: OVCAR-5
# HCC 2998 = test system: HCC 2998
# NCI/ADR-RES = test system: NCI/ADR-RES
# CAKI-1 = test system: CAKI-1
# SN12C = test system: SN12C
# MDA-MB-231 = test system: MDA-MB-231
# TK-10 = test system: TK-10
# PC-3 = test system: PC-3
# LOX IMVI = test system: LOX IMVI
# SK-MEL-5 = test system: SK-MEL-5
# DU-145 = test system: DU-145
# 786-0 = test system: 786-0
# MDA-N = test system: MDA-N
# A498 = test system: A498
# Hs-578T = test system: Hs-578T
# SW-620 = test system: SW-620
# T47D = test system: T47D
# A549 = test system: A549
# MOLT-4 = test system: MOLT-4
# OVCAR-8 = test system: OVCAR-8
# NCI-H226 = test system: NCI-H226
# EKVX = test system: EKVX
# MCF7 = test system: MCF7
# HCT-15 = test system: HCT-15
# MDA-MB-435 = test system: MDA-MB-435
# BT-549 = test system: BT-549
smiles,measurement,setting,value
CCc1c(O)c(O)c(C(C)=O)c2c(O)c(-c3c(C)cc4c(CC)c(O)c(O)c(C(C)=O)c4c3O)c(C)cc12,GI50,COLO 205,6.79 µM (inactive)
same,GI50,UACC-62,7.21 µM (inactive)
same,GI50,CCRF-CEM,2.7 µM (inactive)
same,GI50,M14,8.75 µM (inactive)
same,GI50,DMS-114,5.35 µM (inactive)
same,GI50,SF-268,11 µM (inactive)
same,GI50,K562,2.62 µM (inactive)
same,GI50,SK-OV-3,> 10 µM (inactive)
same,GI50,U-251,8.77 µM (inactive)
same,GI50,HOP-62,13.7 µM (inactive)
same,GI50,SNB-78,2.9 µM (inactive)
same,GI50,OVCAR-4,11.2 µM (inactive)
same,GI50,KM-20L2,4.69 µM (inactive)
same,GI50,RXF 393,6.85 µM (inactive)
same,GI50,SF-295,3.03 µM (inactive)
same,GI50,SNB-75,14.1 µM (inactive)
same,GI50,IGROV-1,5.52 µM (inactive)
same,GI50,KM12,3.74 µM (inactive)
same,GI50,SK-MEL-28,10.9 µM (inactive)
same,GI50,Malme-3M,16.7 µM (inactive)
same,GI50,UO-31,6.49 µM (inactive)
same,GI50,HOP-92,2.78 µM (inactive)
same,GI50,HCT-116,4.17 µM (inactive)
same,GI50,LXFL 529,4.56 µM (inactive)
same,GI50,UACC-257,11.1 µM (inactive)
same,GI50,NCI-H522,2.92 µM (inactive)
same,GI50,SK-MEL-2,7.53 µM (inactive)
same,GI50,NCI-H460,7.73 µM (inactive)
same,GI50,HL-60,3.08 µM (inactive)
same,GI50,SNB-19,7.67 µM (inactive)
same,GI50,SR,38.3 µM (inactive)
same,GI50,OVCAR-3,5.05 µM (inactive)
same,GI50,HT-29,5.15 µM (inactive)
same,GI50,ACHN,12 µM (inactive)
same,GI50,RPMI-8226,3.97 µM (inactive)
same,GI50,M19-MEL,11.2 µM (inactive)
same,GI50,SF-539,9.04 µM (inactive)
same,GI50,NCI-H23,2.82 µM (inactive)
same,GI50,OVCAR-5,18.9 µM (inactive)
CC(=O)Nc1cc(C(=O)Nc2cc(C(=O)N3CC(CCl)c4c3cc(N)c3ccccc43)nn2C)nn1C (configuration not stated),GI50,COLO 205,0.112 µM (active)
same,GI50,UACC-62,< 0.0118 µM (active)
same,GI50,CCRF-CEM,< 0.01 µM (active)
same,GI50,HCC 2998,0.115 µM (active)
same,GI50,NCI/ADR-RES,0.541 µM (active)
same,GI50,M14,0.286 µM (active)
same,GI50,CAKI-1,< 0.0393 µM (active)
same,GI50,SN12C,< 0.01 µM (active)
same,GI50,SF-268,< 0.0132 µM (active)
same,GI50,MDA-MB-231,0.185 µM (active)
same,GI50,K562,0.0381 µM (active)
same,GI50,SK-OV-3,0.0362 µM (active)
same,GI50,TK-10,0.251 µM (active)
same,GI50,PC-3,0.101 µM (active)
same,GI50,U-251,0.0194 µM (active)
same,GI50,HOP-62,0.101 µM (active)
same,GI50,OVCAR-4,0.171 µM (active)
same,GI50,LOX IMVI,0.0117 µM (active)
same,GI50,RXF 393,0.0115 µM (active)
same,GI50,SF-295,0.287 µM (active)
same,GI50,SNB-75,0.0215 µM (active)
same,GI50,SK-MEL-5,0.0178 µM (active)
same,GI50,DU-145,< 0.01 µM (active)
same,GI50,IGROV-1,0.0405 µM (active)
same,GI50,786-0,0.0893 µM (active)
same,GI50,KM12,0.188 µM (active)
same,GI50,MDA-N,0.133 µM (active)
same,GI50,SK-MEL-28,0.0782 µM (active)
same,GI50,Malme-3M,0.115 µM (active)
same,GI50,A498,< 0.0115 µM (active)
same,GI50,UO-31,0.294 µM (active)
same,GI50,Hs-578T,0.176 µM (active)
same,GI50,SW-620,< 0.0383 µM (active)
same,GI50,HOP-92,< 0.0218 µM (active)
same,GI50,HCT-116,0.0187 µM (active)
same,GI50,T47D,< 0.01 µM (active)
same,GI50,UACC-257,0.186 µM (active)
same,GI50,NCI-H522,< 0.01 µM (active)
same,GI50,SK-MEL-2,0.0731 µM (active)
same,GI50,NCI-H460,< 0.01 µM (active)
same,GI50,HL-60,< 0.01 µM (active)
same,GI50,SNB-19,0.127 µM (active)
same,GI50,SR,< 0.01 µM (active)
same,GI50,OVCAR-3,0.23 µM (active)
same,GI50,A549,0.187 µM (active)
same,GI50,MOLT-4,< 0.0112 µM (active)
same,GI50,OVCAR-8,0.0209 µM (active)
same,GI50,HT-29,0.216 µM (active)
same,GI50,NCI-H226,< 0.0232 µM (active)
same,GI50,ACHN,< 0.0148 µM (active)
same,GI50,RPMI-8226,0.188 µM (active)
same,GI50,EKVX,0.159 µM (active)
same,GI50,MCF7,0.168 µM (active)
same,GI50,HCT-15,0.571 µM
same,GI50,SF-539,0.0191 µM (active)
same,GI50,NCI-H23,< 0.0104 µM (active)
same,GI50,MDA-MB-435,0.138 µM (active)
same,GI50,BT-549,0.185 µM (active)
same,GI50,OVCAR-5,0.31 µM (active)
Cc1cccc2cc3ccc4ccccc4c3cc12,GI50,COLO 205,19.4 µM (inactive)
same,GI50,UACC-62,80.9 µM (inactive)
same,GI50,CCRF-CEM,20.1 µM (inactive)
same,GI50,HCC 2998,19.9 µM (inactive)
same,GI50,NCI/ADR-RES,> 100 µM (inactive)
same,GI50,M14,48.5 µM (inactive)
same,GI50,CAKI-1,87.1 µM (inactive)
same,GI50,SN12C,51.6 µM (inactive)
same,GI50,SF-268,> 100 µM (inactive)
same,GI50,MDA-MB-231,51.3 µM (inactive)
same,GI50,K562,63.1 µM (inactive)
same,GI50,SK-OV-3,> 100 µM (inactive)
same,GI50,TK-10,36.6 µM (inactive)
same,GI50,PC-3,66.5 µM (inactive)
same,GI50,U-251,41.4 µM (inactive)
same,GI50,HOP-62,68.4 µM (inactive)
same,GI50,OVCAR-4,47.3 µM (inactive)
same,GI50,LOX IMVI,39.4 µM (inactive)
same,GI50,RXF 393,75.2 µM (inactive)
same,GI50,SF-295,40.8 µM (inactive)
same,GI50,SNB-75,69.2 µM (inactive)
same,GI50,SK-MEL-5,21.9 µM (inactive)
same,GI50,DU-145,66.5 µM (inactive)
same,GI50,IGROV-1,55 µM (inactive)
same,GI50,786-0,41.7 µM (inactive)
same,GI50,KM12,37.2 µM (inactive)
same,GI50,MDA-N,38.9 µM (inactive)
same,GI50,SK-MEL-28,> 100 µM (inactive)
same,GI50,Malme-3M,56.5 µM (inactive)
same,GI50,A498,44.2 µM (inactive)
same,GI50,UO-31,77.8 µM (inactive)
same,GI50,Hs-578T,> 100 µM (inactive)
same,GI50,SW-620,44 µM (inactive)
same,GI50,HOP-92,98.9 µM (inactive)
same,GI50,HCT-116,30 µM (inactive)
same,GI50,T47D,22.1 µM (inactive)
same,GI50,UACC-257,20 µM (inactive)
same,GI50,NCI-H522,27.9 µM (inactive)
same,GI50,SK-MEL-2,26.5 µM (inactive)
same,GI50,NCI-H460,25.4 µM (inactive)
same,GI50,HL-60,24.9 µM (inactive)
same,GI50,SNB-19,76.2 µM (inactive)
same,GI50,SR,22.2 µM (inactive)
same,GI50,OVCAR-3,63.2 µM (inactive)
same,GI50,A549,37.1 µM (inactive)
same,GI50,MOLT-4,25.7 µM (inactive)
same,GI50,OVCAR-8,> 100 µM (inactive)
same,GI50,HT-29,30.7 µM (inactive)
same,GI50,NCI-H226,37 µM (inactive)
same,GI50,ACHN,46.7 µM (inactive)
same,GI50,RPMI-8226,34.6 µM (inactive)
same,GI50,EKVX,21.2 µM (inactive)
same,GI50,MCF7,8.28 µM (inactive)
same,GI50,HCT-15,47 µM
same,GI50,SF-539,74 µM (inactive)
same,GI50,NCI-H23,54.5 µM (inactive)
same,GI50,MDA-MB-435,47.6 µM (inactive)
same,GI50,BT-549,> 100 µM (inactive)
same,GI50,OVCAR-5,38.5 µM (inactive)
